ChEMBL document CHEMBL1139051, “Human ACAT inhibitory effects of shikonin derivatives from Lithospermum erythrorhizon” (Bioorg Med Chem Lett, 2007)

These compounds were tested against T1, Sterol O-acyltransferase 2 (Homo sapiens, UniProt O75908) (assay: Inhibition of human ACAT2 expressed in Hi5 cells). Conditions: not given.
T1 sequence (O75908 whole entry): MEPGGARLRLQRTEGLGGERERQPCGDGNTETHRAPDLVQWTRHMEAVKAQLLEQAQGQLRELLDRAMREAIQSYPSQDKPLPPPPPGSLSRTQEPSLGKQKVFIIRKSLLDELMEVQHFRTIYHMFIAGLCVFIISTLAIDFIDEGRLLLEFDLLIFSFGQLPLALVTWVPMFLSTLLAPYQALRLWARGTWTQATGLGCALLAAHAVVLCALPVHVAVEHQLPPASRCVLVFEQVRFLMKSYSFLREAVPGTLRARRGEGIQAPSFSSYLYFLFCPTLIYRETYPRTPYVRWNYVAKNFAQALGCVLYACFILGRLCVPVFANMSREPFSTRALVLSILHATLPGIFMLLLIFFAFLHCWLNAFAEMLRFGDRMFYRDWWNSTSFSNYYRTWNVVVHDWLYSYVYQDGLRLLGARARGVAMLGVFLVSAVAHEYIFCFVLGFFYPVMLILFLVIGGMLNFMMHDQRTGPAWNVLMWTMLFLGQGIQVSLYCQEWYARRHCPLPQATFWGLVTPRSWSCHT
Set-up: species or system BTI-TN-5B1-4

| IC50 [µM] | SMILES |
| --- | --- |
| 71.4 | C=CCCC(=O)O[C@H](CC=C(C)C)C1=CC(=O)c2c(O)ccc(O)c2C1=O |
| 57.5 | CC(C)=CC[C@@H](OC(=O)C(C)C)C1=CC(=O)c2c(O)ccc(O)c2C1=O [ISOBUTYLSHIKONIN] |
| 112 | CC(=O)O[C@H](CC=C(C)C)C1=CC(=O)c2c(O)ccc(O)c2C1=O [ACETYLSHIKONIN] |
| 138 | CC(C)=CC[C@@H](O)C1=CC(=O)c2c(O)ccc(O)c2C1=O [SHIKONIN] |
| 49.6 | CCCC(=O)O[C@H](CC=C(C)C)C1=CC(=O)c2c(O)ccc(O)c2C1=O |
| 84.5 | CCCCC(=O)O[C@H](CC=C(C)C)C1=CC(=O)c2c(O)ccc(O)c2C1=O |
| 56.2 | CC(C)=CC[C@@H](OC(=O)c1ccccc1)C1=CC(=O)c2c(O)ccc(O)c2C1=O |

| SMILES | IC50 [µM] |
| --- | --- |
| CC(C)=CC[C@@H](OC(=O)CC(C)(C)O)C1=CC(=O)c2c(O)ccc(O)c2C1=O [BETA-HYDROXYISOVALERYLSHIKONIN] | 170 |
| CCC(=O)O[C@H](CC=C(C)C)C1=CC(=O)c2c(O)ccc(O)c2C1=O | 28.7 |

The compounds below were run against T2, Sterol O-acyltransferase 1 (Homo sapiens, UniProt P35610) (assay: Inhibition of human ACAT1 expressed in Hi5 cells). Conditions: not given.
T2 sequence (P35610 whole entry): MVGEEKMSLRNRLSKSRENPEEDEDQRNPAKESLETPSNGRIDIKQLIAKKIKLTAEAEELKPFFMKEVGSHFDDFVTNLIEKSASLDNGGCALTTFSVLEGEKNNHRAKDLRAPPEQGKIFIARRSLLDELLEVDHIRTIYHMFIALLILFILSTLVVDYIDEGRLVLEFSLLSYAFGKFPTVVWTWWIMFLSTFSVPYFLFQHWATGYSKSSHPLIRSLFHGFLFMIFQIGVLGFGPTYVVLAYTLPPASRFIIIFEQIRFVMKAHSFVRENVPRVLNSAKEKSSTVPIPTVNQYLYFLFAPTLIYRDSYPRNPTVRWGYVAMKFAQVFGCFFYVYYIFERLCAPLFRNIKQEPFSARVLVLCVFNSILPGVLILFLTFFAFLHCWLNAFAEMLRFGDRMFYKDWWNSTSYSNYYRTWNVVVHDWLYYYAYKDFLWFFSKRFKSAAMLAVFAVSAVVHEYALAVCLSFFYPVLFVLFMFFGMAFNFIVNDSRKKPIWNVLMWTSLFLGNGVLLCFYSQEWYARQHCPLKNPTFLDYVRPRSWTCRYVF
Set-up: species or system BTI-TN-5B1-4

| IC50 [µM] | SMILES |
| --- | --- |
| 13.8 | CC(C)=CC[C@@H](OC(=O)CC(C)C)C1=CC(=O)c2c(O)ccc(O)c2C1=O |

Each compound was assayed against T3, Sterol O-acyltransferase 1 (Homo sapiens) (UniProt P35610) (assay: Inhibition of human ACAT1 expressed in Hi5 cells at 120 uM). Conditions: BTI-TN-5B1-4.
T3 sequence (whole entry): T2 sequence (P35610 whole entry)

| inhibition [%] | SMILES |
| --- | --- |
| 32 | CC(C)=CC[C@@H](OC(=O)C(C)C)C1=CC(=O)c2c(O)ccc(O)c2C1=O [ISOBUTYLSHIKONIN] |

Each compound was assayed against T2, Sterol O-acyltransferase 1 (assay: Inhibition of human ACAT1 expressed in AC29 cells by cell-based fluorescent assay system). Conditions: not given.

| IC50 [nM] | SMILES |
| --- | --- |
| 600 | CC(C)=CC[C@@H](OC(=O)CC(C)C)C1=CC(=O)c2c(O)ccc(O)c2C1=O |
